Non-standard residues stand in square brackets, D forms with d. Residues, ends and D or L forms follow the SMILES beside them. Phe(3-Cl) = N[C@@H](Cc1cccc(Cl)c1)C(=O)O; Phe(4-Cl) = N[C@@H](Cc1ccc(Cl)cc1)C(=O)O; Phe(4-NH2) = Nc1ccc(C[C@H](N)C(=O)O)cc1; Phe(2-Cl) = N[C@@H](Cc1ccccc1Cl)C(=O)O; 1Nal = N[C@@H](Cc1cccc2ccccc12)C(=O)O; 2Nal = N[C@@H](Cc1ccc2ccccc2c1)C(=O)O; Arg(Me) = CNC(=N)NCCC[C@H](N)C(=O)O; azaGly = NNC(=O)O

For the experiment, the target named is T1, hOT7T175 (Homo sapiens, UniProt Q969F8, L364H).
T1 construct: expressed in transfected cells
T1 sequence (Q969F8 whole entry L364H): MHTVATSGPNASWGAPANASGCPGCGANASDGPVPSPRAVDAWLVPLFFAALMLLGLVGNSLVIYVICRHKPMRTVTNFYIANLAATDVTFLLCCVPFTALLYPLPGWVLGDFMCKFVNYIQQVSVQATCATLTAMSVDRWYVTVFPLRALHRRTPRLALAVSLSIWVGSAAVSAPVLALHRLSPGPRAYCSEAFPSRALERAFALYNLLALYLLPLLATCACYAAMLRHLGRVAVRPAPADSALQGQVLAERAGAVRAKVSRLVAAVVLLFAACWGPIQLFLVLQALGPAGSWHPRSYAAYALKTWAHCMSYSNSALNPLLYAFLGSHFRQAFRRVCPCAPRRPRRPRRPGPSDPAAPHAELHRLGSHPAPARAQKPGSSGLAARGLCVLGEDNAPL
Nature of the experiment: Intracellular Ca ion level-increasing activity using FLIPR (180 seconds; specific activity to Metastin (1-54)). The experiment is classed as cell-based. The following applies: hOT7T175/CHO, relative to Metastin (1-54) = 1.
For `CNC(=N)NCCC[C@H](NC(=O)[C@H](CC(C)C)NC(=O)CNC(=O)[C@H](Cc1ccccc1)NC(=O)[C@H](CO)NC(=O)[C@H](CC(N)=O)NC(=O)[C@H](CO)NC(=O)[C@H](N)Cc1ccc(O)cc1)C(=O)N[C@@H](Cc1ccccc1)C(N)=O` [Compound No. 226] (H-[dY]SNSFGL[Arg(Me)]F-NH2), the “Specific Act. (intracellular Ca ion level-increasing activity, specific activity to Metastin (1-54))” value was determined as 1.
Under `CNC(=N)NCCC[C@H](NC(=O)[C@H](CC(C)C)NC(=O)CNC(=O)[C@H](Cc1ccccc1)NC(=O)[C@H](CO)NC(=O)[C@H](CC(N)=O)NC(=O)[C@@H](NC(=O)[C@H](N)Cc1ccc(O)cc1)[C@@H](C)O)C(=O)N[C@@H](Cc1ccccc1)C(N)=O` [Compound No. 227] (H-[dY]TNSFGL[Arg(Me)]F-NH2) stands 1.
Regarding `CC[C@H](C)[C@H](NC(=O)[C@H](N)Cc1ccc(O)cc1)C(=O)N[C@@H](CC(N)=O)C(=O)N[C@@H](CO)C(=O)N[C@@H](Cc1ccccc1)C(=O)NCC(=O)N[C@@H](CC(C)C)C(=O)N[C@@H](CCCNC(=N)NC)C(=O)N[C@@H](Cc1ccccc1)C(N)=O` [Compound No. 228] (H-[dY]INSFGL[Arg(Me)]F-NH2), the “Specific Act. (intracellular Ca ion level-increasing activity, specific activity to Metastin (1-54))” value amounted to 5.
With `CNC(=N)NCCC[C@H](NC(=O)[C@H](CC(C)C)NC(=O)CNC(=O)[C@H](Cc1ccccc1)NC(=O)[C@H](CO)NC(=O)[C@H](CC(N)=O)NC(=O)[C@@H](NC(=O)[C@H](CC(N)=O)NC(=O)[C@H](N)Cc1ccc(O)cc1)C(C)C)C(=O)N[C@@H](Cc1ccccc1)C(N)=O` [Compound No. 229] (H-[dY]NVNSFGL[Arg(Me)]F-NH2) the figure was 1; with `CNC(=N)NCCC[C@H](NC(=O)[C@H](CC(C)C)NC(=O)CNC(=O)[C@H](Cc1ccccc1)NC(=O)[C@H](CO)NC(=O)[C@H](CC(N)=O)NC(=O)[C@H](Cc1c[nH]c2ccccc12)NC(=O)[C@@H](CC(N)=O)NC(=O)[C@H](N)Cc1ccc(O)cc1)C(=O)N[C@@H](Cc1ccccc1)C(N)=O` [Compound No. 230], 10.
Under `CNC(=N)NCCC[C@H](NC(=O)[C@H](CC(C)C)NC(=O)CNC(=O)[C@H](Cc1ccccc1)NC(=O)[C@H](CO)NC(=O)[C@H](CC(N)=O)NC(=O)[C@@H](Cc1c[nH]c2ccccc12)NC(=O)[C@@H](CC(N)=O)NC(=O)[C@H](N)Cc1ccc(O)cc1)C(=O)N[C@@H](Cc1ccccc1)C(N)=O` [Compound No. 231, D-Tyr-D-Asn-D-Trp-Asn-Ser-Phe-Gly-Leu-Arg(Me)-Phe-NH2] stands 1; under `CC[C@H](C)[C@H](NC(=O)[C@H](CC(N)=O)NC(=O)[C@H](N)Cc1ccc(O)cc1)C(=O)N[C@@H](CC(N)=O)C(=O)N[C@@H](CO)C(=O)N[C@@H](Cc1ccccc1)C(=O)NNC(=O)N[C@@H](CC(C)C)C(=O)N[C@@H](CCCNC(=N)NC)C(=O)N[C@@H](Cc1ccccc1)C(N)=O` [Compound No. 233, D-Tyr-Asn-Ile-Asn-Ser-Phe-AzaGly-Leu-Arg(Me)-Phe-NH2] (H-[dY]NINSF[azaGly]L[Arg(Me)]F-NH2), 1.
With `CNC(=N)NCCC[C@H](NC(=O)[C@H](CC(C)C)NC(=O)NNC(=O)[C@H](Cc1ccccc1)NC(=O)[C@H](CO)NC(=O)[C@H](CC(N)=O)NC(=O)[C@@H](NC(=O)[C@H](CC(N)=O)NC(=O)[C@H](N)Cc1ccc(O)cc1)C(C)C)C(=O)N[C@@H](Cc1ccccc1)C(N)=O` [Compound No. 234, D-Tyr-Asn-Val-Asn-Ser-Phe-AzaGly-Leu-Arg(Me)-Phe-NH2] (H-[dY]NVNSF[azaGly]L[Arg(Me)]F-NH2) the figure was 1; with `CNC(=N)NCCC[C@H](NC(=O)[C@H](CC(C)C)NC(=O)NNC(=O)[C@H](Cc1ccccc1)NC(=O)[C@H](CO)NC(=O)[C@H](CC(N)=O)NC(=O)[C@H](C)NC(=O)[C@H](CC(N)=O)NC(=O)[C@H](N)Cc1ccc(O)cc1)C(=O)N[C@@H](Cc1ccccc1)C(N)=O` [Compound No. 235, D-Tyr-Asn-Ala-Asn-Ser-Phe-AzaGly-Leu-Arg(Me)-Phe-NH2] (H-[dY]NANSF[azaGly]L[Arg(Me)]F-NH2), 1.
On to `CNC(=N)NCCC[C@H](NC(=O)[C@H](CC(C)C)NC(=O)NNC(=O)[C@H](Cc1ccccc1)NC(=O)[C@H](CO)NC(=O)[C@H](CC(N)=O)NC(=O)[C@@H](Cc1c[nH]c2ccccc12)NC(=O)[C@H](CC(N)=O)NC(=O)[C@H](N)Cc1ccc(O)cc1)C(=O)N[C@@H](Cc1ccccc1)C(N)=O` [Compound No. 236, D-Tyr-Asn-D-Trp-Asn-Ser-Phe-AzaGly-Leu-Arg(Me)-Phe-NH2], for which the “Specific Act. (intracellular Ca ion level-increasing activity, specific activity to Metastin (1-54))” value is 2.
Take `CNC(=N)NCCC[C@H](NC(=O)[C@H](CC(C)C)NC(=O)NNC(=O)[C@H](Cc1ccccc1)NC(=O)[C@H](CO)NC(=O)[C@H](CC(N)=O)NC(=O)[C@H](Cc1c[nH]c2ccccc12)NC(=O)[C@@H](CC(N)=O)NC(=O)[C@H](N)Cc1ccc(O)cc1)C(=O)N[C@@H](Cc1ccccc1)C(N)=O` [Compound No. 237, D-Tyr-D-Asn-Trp-Asn-Ser-Phe-AzaGly-Leu-Arg(Me)-Phe-NH2]: the “Specific Act. (intracellular Ca ion level-increasing activity, specific activity to Metastin (1-54))” value came to 3.
With `CNC(=N)NCCC[C@H](NC(=O)[C@H](CC(C)C)NC(=O)NNC(=O)[C@H](Cc1ccccc1)NC(=O)[C@H](CO)NC(=O)[C@H](CC(N)=O)NC(=O)[C@@H](Cc1c[nH]c2ccccc12)NC(=O)[C@@H](CC(N)=O)NC(=O)[C@H](N)Cc1ccc(O)cc1)C(=O)N[C@@H](Cc1ccccc1)C(N)=O` [Compound No. 238, D-Tyr-D-Asn-D-Trp-Asn-Ser-Phe-AzaGly-Leu-Arg(Me)-Phe-NH2] the figure was 1.
Turning to `CNC(=N)NCCC[C@H](NC(=O)[C@H](CC(C)C)NC(=O)NNC(=O)[C@H](Cc1ccccc1)NC(=O)[C@H](CO)NC(=O)[C@H](CC(N)=O)NC(=O)[C@H](Cc1ccccc1)NC(=O)[C@H](CC(N)=O)NC(=O)[C@H](N)Cc1ccc(O)cc1)C(=O)N[C@@H](Cc1ccccc1)C(N)=O` [Compound No. 244, D-Tyr-Asn-Phe-Asn-Ser-Phe-AzaGly-Leu-Arg(Me)-Phe-NH2] (H-[dY]NFNSF[azaGly]L[Arg(Me)]F-NH2), the “Specific Act. (intracellular Ca ion level-increasing activity, specific activity to Metastin (1-54))” value was determined as 1.
Regarding `CNC(=N)NCCC[C@H](NC(=O)[C@H](CC(C)C)NC(=O)NNC(=O)[C@H](Cc1ccccc1)NC(=O)[C@H](CO)NC(=O)[C@H](CC(N)=O)NC(=O)[C@H](Cc1cccc2ccccc12)NC(=O)[C@H](CC(N)=O)NC(=O)[C@H](N)Cc1ccc(O)cc1)C(=O)N[C@@H](Cc1ccccc1)C(N)=O` [Compound No. 245, D-Tyr-Asn-Nal(1)-Asn-Ser-Phe-AzaGly-Leu-Arg(Me)-Phe-NH2] (H-[dY]N[1Nal]NSF[azaGly]L[Arg(Me)]F-NH2), the “Specific Act. (intracellular Ca ion level-increasing activity, specific activity to Metastin (1-54))” value amounted to 1.
As to `CNC(=N)NCCC[C@H](NC(=O)[C@H](CC(C)C)NC(=O)NNC(=O)[C@H](Cc1ccccc1)NC(=O)[C@H](CO)NC(=O)[C@H](CC(N)=O)NC(=O)[C@H](Cc1ccc2ccccc2c1)NC(=O)[C@H](CC(N)=O)NC(=O)[C@H](N)Cc1ccc(O)cc1)C(=O)N[C@@H](Cc1ccccc1)C(N)=O` [Compound No. 246, D-Tyr-Asn-Nal(2)-Asn-Ser-Phe-AzaGly-Leu-Arg(Me)-Phe-NH2] (H-[dY]N[2Nal]NSF[azaGly]L[Arg(Me)]F-NH2), the “Specific Act. (intracellular Ca ion level-increasing activity, specific activity to Metastin (1-54))” value amounted to 2.
Regarding `CNC(=N)NCCC[C@H](NC(=O)[C@H](CC(C)C)NC(=O)NNC(=O)[C@H](Cc1ccccc1)NC(=O)[C@H](CO)NC(=O)[C@H](CC(N)=O)NC(=O)[C@H](Cc1ccccc1Cl)NC(=O)[C@H](CC(N)=O)NC(=O)[C@H](N)Cc1ccc(O)cc1)C(=O)N[C@@H](Cc1ccccc1)C(N)=O` [Compound No. 247, D-Tyr-Asn-Phe(2Cl)-Asn-Ser-Phe-AzaGly-Leu-Arg(Me)-Phe-NH2] (H-[dY]N[Phe(2-Cl)]NSF[azaGly]L[Arg(Me)]F-NH2), the “Specific Act. (intracellular Ca ion level-increasing activity, specific activity to Metastin (1-54))” value stood at 1.
For the molecule `CNC(=N)NCCC[C@H](NC(=O)[C@H](CC(C)C)NC(=O)NNC(=O)[C@H](Cc1ccccc1)NC(=O)[C@H](CO)NC(=O)[C@H](CC(N)=O)NC(=O)[C@H](Cc1cccc(Cl)c1)NC(=O)[C@H](CC(N)=O)NC(=O)[C@H](N)Cc1ccc(O)cc1)C(=O)N[C@@H](Cc1ccccc1)C(N)=O` [Compound No. 248, D-Tyr-Asn-Phe(3Cl)-Asn-Ser-Phe-AzaGly-Leu-Arg(Me)-Phe-NH2] (H-[dY]N[Phe(3-Cl)]NSF[azaGly]L[Arg(Me)]F-NH2), the “Specific Act. (intracellular Ca ion level-increasing activity, specific activity to Metastin (1-54))” value stood at 2.
Turning to `CNC(=N)NCCC[C@H](NC(=O)[C@H](CC(C)C)NC(=O)NNC(=O)[C@H](Cc1ccccc1)NC(=O)[C@H](CO)NC(=O)[C@H](CC(N)=O)NC(=O)[C@H](Cc1ccc(Cl)cc1)NC(=O)[C@H](CC(N)=O)NC(=O)[C@H](N)Cc1ccc(O)cc1)C(=O)N[C@@H](Cc1ccccc1)C(N)=O` [Compound No. 249, D-Tyr-Asn-Phe(4Cl)-Asn-Ser-Phe-AzaGly-Leu-Arg(Me)-Phe-NH2] (H-[dY]N[Phe(4-Cl)]NSF[azaGly]L[Arg(Me)]F-NH2), the “Specific Act. (intracellular Ca ion level-increasing activity, specific activity to Metastin (1-54))” value is recorded as 1.
Under `CNC(=N)NCCC[C@H](NC(=O)[C@H](CC(C)C)NC(=O)NNC(=O)[C@H](Cc1ccccc1)NC(=O)[C@H](CO)NC(=O)[C@H](CC(N)=O)NC(=O)[C@H](Cc1ccc(N)cc1)NC(=O)[C@H](CC(N)=O)NC(=O)[C@H](N)Cc1ccc(O)cc1)C(=O)N[C@@H](Cc1ccccc1)C(N)=O` [Compound No. 250, D-Tyr-Asn-Phe(4NH2)-Asn-Ser-Phe-AzaGly-Leu-Arg(Me)-Phe-NH2] (H-[dY]N[Phe(4-NH2)]NSF[azaGly]L[Arg(Me)]F-NH2) stands 1.
Under `CNC(=N)NCCC[C@H](NC(=O)[C@H](CC(C)C)NC(=O)NNC(=O)[C@H](Cc1ccccc1)NC(=O)[C@H](CO)NC(=O)[C@H](CC(N)=O)NC(=O)[C@H](Cc1ccccc1)NC(=O)[C@H](N)Cc1ccc(O)cc1)C(=O)N[C@@H](Cc1ccccc1)C(N)=O` [Compound No. 254, D-Tyr-Phe-Asn-Ser-Phe-AzaGly-Leu-Arg(Me)-Phe-NH2] (H-[dY]FNSF[azaGly]L[Arg(Me)]F-NH2) stands 1.
